Values of other authors as cited in US20200368163A1, “EN[…]-DISPERSIBLE CANNABINOID NANOPARTICLE COMPOSITIONS, METHODS AND SYSTEMS” (The Trustees of Princeton University, priority 2019, published 2020).

With `C=C(C)[C@@H]1CCC(C)=C[C@H]1c1c(O)cc(CCCCC)cc1O` [CBD, Cannabidiol] as the compound, how does the “log P” value read?
The value was roughly 6.
